PubChem BioAssay (NCI)
“And” between values parts separate entries of the source, which are not always exact repeats. Equal entries are not always repeated.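 Cells were grown in 96-well plates and exposed to each compound for 48 hours at five concentrations; endpoints were interpolated linearly between bracketing concentrations, or set to the highest concentration if not reached. GI50 = concentration required for 50% inhibition of growth. Definition used: TGI = concentration required for complete inhibition of growth.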

Assays:
Test in all cases: NCI anticancer screen, dose series, 48 h
ACHN renal = tested on: ACHN renal
HCT-15 colon = tested on: HCT-15 colon
HL-60(TB) leukemia = tested on: HL-60(TB) leukemia
LOX IMVI melanoma = tested on: LOX IMVI melanoma
NCI-H460 lung = tested on: NCI-H460 lung
NCI-H522 lung = tested on: NCI-H522 lung
PC-3 prostate = tested on: PC-3 prostate
RXF 393 renal = tested on: RXF 393 renal
TK-10 renal = tested on: TK-10 renal
UACC-257 melanoma = tested on: UACC-257 melanoma

Row | SMILES | GI50 (ACHN renal) [nM] | TGI (ACHN renal) | GI50 (HCT-15 colon) [µM] | TGI (HCT-15 colon) [µM] | GI50 (HL-60(TB) leukemia) [µM] | TGI (HL-60(TB) leukemia) | GI50 (LOX IMVI melanoma) [µM] | TGI (LOX IMVI melanoma) [µM] | GI50 (NCI-H460 lung) [nM] | TGI (NCI-H460 lung) [µM] | GI50 (NCI-H522 lung) [nM] | TGI (NCI-H522 lung) | GI50 (PC-3 prostate) [nM] | TGI (PC-3 prostate) [µM] | GI50 (RXF 393 renal) [µM] | TGI (RXF 393 renal) [µM] | GI50 (TK-10 renal) [µM] | TGI (TK-10 renal) [µM] | GI50 (UACC-257 melanoma) [µM] | TGI (UACC-257 melanoma) [µM]
1 | CCCc1cc(=O)n2c(C(=O)Nc3ccc(F)cc3)c(C(=O)Nc3ccc(F)cc3)sc2n1 | 17300 | 57.7 µM | 89.7 | > 160 | > 160 | > 160 µM | 45.5 | > 160 | 73400 | > 160 | 73300 | > 160 µM | 30100 | > 160 | 4.41 | 13 | 32.3 | 74.7 | 20.8 | 62.8
2 | Cc1ccc([N+](=O)[O-])c2c(NCCNC(=O)c3cc(C(=O)NCCNc4ccnc5c(C)ccc([N+](=O)[O-])c45)n(C)n3)ccnc12 | – | > 100 µM | – | > 100 | – | > 76.1 µM | – | > 64.7 | – | > 100 | – | > 100 µM | – | > 100 | – | > 100 | – | > 100 | – | > 100
3 | O=C(/C=C/C=C/c1ccccc1)c1ccco1 | 16900 | 33.5 µM | 11.6 | 26.3 | 10 | 97.6 µM | 13.7 | 27.9 | 21000 | 47.5 | 13200 | 27 µM | 16400 | 53 | 9.78 | 24.6 | 16.9 | 40.1 | 21.8 | 60.7
4 | COc1ccc(-c2nc(-c3nc4ccc(C)cc4[nH]3)cc3c2[nH]c2ccccc23)cc1 | 3050 | > 100 µM | 3.2 | > 100 | 4.11 | 37.7 µM | 3.34 | 17.1 | 2990 | > 100 | 4390 | 42.1 µM | 2740 | > 100 | 3.82 | > 100 | 5.45 | > 100 | 3.94 | > 100
5 | CC/C(Cc1ccccc1)=C(\c1ccc(OCCN2CCCC2)cc1)c1ccc(OC(=O)NCc2ccccc2)cc1 | 1690 | 3.06 µM | 1.58 | 3.07 | 1.93 | 3.98 µM | 1.71 | 3.1 | 1890 | 3.42 | 1990 | 4.14 µM | 1860 | 3.55 | 1.77 | 3.28 | 1.76 | 3.5 | 1.91 | 3.81
6 | Cc1cc(-c2c(F)cc3c4nn([C@H]5CC[C@@H](N(C)C)CC5)c(=O)c-4cn(C4CC4)c3c2F)cc(C)n1 | 21.9 | 0.171 µM and 0.928 µM | – | – | 0.00306 | 0.0322 µM and 0.235 µM | – | 0.571 | – | 0.273 | 32.5 | 0.144 µM and 0.771 µM | – | > 100 | – | 1.39 | – | – | – | 5.77
7 | O=C(O)/C(Cc1ccnc2ccccc12)=N\O | – | > 100 µM | – | > 100 | – | > 100 µM | – | > 100 | – | > 100 | – | > 100 µM | – | > 100 | – | > 100 | – | > 100 | – | > 100
8 | COc1ccc(/C=C/c2c(C(=O)/C=C/c3ccc(C(F)(F)F)cc3)c(C)nc3ccccc23)cc1 | 1500 | 2.84 µM | 1.14 | 4.59 | 1.92 | 5.67 µM | 1.37 | 2.74 | 1870 | 4.22 | 1670 | 5.69 µM | 1830 | 5.58 | 1.74 | 3.52 | 2.56 | 4.38 | 2.09 | 4.52
9 | O=C(Nc1ccccc1I(=O)=O)C1CCCCC1 | > 100000 | > 100 µM | > 100 | > 100 | 57.6 | > 100 µM | > 100 | > 100 | > 100000 | > 100 | > 100000 | > 100 µM | > 100000 | > 100 | > 100 | > 100 | > 100 | > 100 | > 100 | > 100
10 | CN(C)CCCn1c(=O)c2ccccc2c2cnc3[nH]ccc3c21 | 564 | 7.08 µM | 2 | 9.58 | 3.27 | 9.08 µM | 0.631 | 3.27 | 800 | 2.62 | 1820 | 5.03 µM | 1690 | 11.1 | 1.4 | 3.99 | – | – | 2.26 | 5.59
